ChEMBL document CHEMBL1149794, “3D-QSAR and docking studies of aminopyridine carboxamide inhibitors of c-Jun N-terminal kinase-1” (Eur J Med Chem, 2008)

What follows are compounds tested against Mitogen-activated protein kinase 8 (Homo sapiens, UniProt P45983) (assay: Inhibition of JNK1).
Sequence of Mitogen-activated protein kinase 8 (P45983 whole entry): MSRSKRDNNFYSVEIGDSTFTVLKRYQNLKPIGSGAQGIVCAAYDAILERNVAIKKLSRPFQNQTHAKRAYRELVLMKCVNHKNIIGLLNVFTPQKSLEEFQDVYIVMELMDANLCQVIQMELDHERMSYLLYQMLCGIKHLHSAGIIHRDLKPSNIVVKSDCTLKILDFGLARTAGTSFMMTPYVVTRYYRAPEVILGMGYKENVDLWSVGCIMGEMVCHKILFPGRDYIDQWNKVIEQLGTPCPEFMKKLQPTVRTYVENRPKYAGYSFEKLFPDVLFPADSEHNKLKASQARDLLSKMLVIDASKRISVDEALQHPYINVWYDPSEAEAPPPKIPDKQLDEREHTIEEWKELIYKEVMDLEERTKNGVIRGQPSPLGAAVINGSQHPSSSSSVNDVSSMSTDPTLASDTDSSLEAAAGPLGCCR

| IC50 [nM] | Compound |
| --- | --- |
| 180 | C[C@@H](CO)Nc1nc(C(=O)NCc2ccc(S(C)(=O)=O)cc2)cc(N)c1C#N |
| 22 | C[C@@H](CO)Oc1nc(C(=O)NCc2ccc(S(C)(=O)=O)cc2)cc(N)c1C#N |
| 1640 | CS(=O)(=O)c1ccc(CNC(=O)c2cc(N)c(C#N)c(OCCC(=O)O)n2)cc1 |
| 1500 | CC(C)[C@H](CO)Nc1nc(C(=O)NCc2ccc(S(C)(=O)=O)cc2)cc(N)c1C#N |
